Data from ChEMBL document CHEMBL5126521, “Analgesic Opioid Ligand Discovery Based on Nonmorphinan Scaffolds Derived from Natural Sources” (J Med Chem, 2022).
Square brackets hold non-standard residues; d marks the D form. Peptide text beside a SMILES is read from it. βAla = NCCC(=O)O

Experiments:
Mu-type opioid receptor [1] = target: T1, Mu-type opioid receptor (Homo sapiens, UniProt P35372); experiment: Binding affinity to MOP (unknown origin)
[2] = target: T2, Delta-type opioid receptor (Homo sapiens, UniProt P41143); experiment: Binding affinity to DOP (unknown origin)
Mu-type opioid receptor [3] = target: T3, Mu-type opioid receptor (Cavia porcellus, UniProt P97266); experiment: Displacement of [3H]DAMGO from guinea pig brain membrane MOP incubated for 1 hr by scintillation counter analysis; assay type: cell membranes
[4] = Displacement of [3H]naltrindole from guinea pig brain membrane DOP incubated for 3 hr by scintillation counter analysis; assay type: cell membranes, Cavia porcellus
Mu-type opioid receptor [5] = target: T1, Mu-type opioid receptor; experiment: Agonist activity at MOP (unknown origin); assay type: functional
[6] = target: T4, Kappa-type opioid receptor (Cavia porcellus, UniProt P41144); experiment: Displacement of [3H]U69593 from guinea pig brain membrane KOP incubated for 1 hr by scintillation counter analysis; assay type: cell membranes
[7] = target: Delta-type opioid receptor (Mus musculus, UniProt P32300); experiment: Inhibition of mouse DOP
[8] = target: T5, Kappa-type opioid receptor (Mus musculus, UniProt P33534); experiment: Inhibition of mouse KOP
[9] = target: T2, Delta-type opioid receptor; experiment: Inhibition of DOP (unknown origin)
[10] = target: T6, Kappa-type opioid receptor (Homo sapiens, UniProt P41145); experiment: Inhibition of KOP (unknown origin)
Mus musculus [11] = experiment: Antinociceptive activity in po dosed mouse by tail flick assay; assay type: functional
Mus musculus [12] = experiment: Antinociceptive activity in sc dosed mouse by tail flick assay; assay type: functional
Mus musculus [13] = experiment: Antinociceptive activity in po dosed mouse by hot plate assay; assay type: functional
Mus musculus [14] = experiment: Antinociceptive activity in sc dosed mouse by hot plate assay; assay type: functional
Mus musculus [15] = experiment: Antinociceptive activity in po dosed mouse; assay type: functional
Mus musculus [16] = experiment: Antinociceptive activity in sc dosed visceral pain mouse model; assay type: functional
[17] = Toxicity in po dosed mouse assessed as antinociceptive activity tolerance by tail flick assay; assay type: organism-based; conditions: in vivo
[18] = Toxicity in sc dosed mouse assessed as antinociceptive activity tolerance by tail flick assay; assay type: organism-based; conditions: in vivo
Mus musculus [19] = experiment: Antinociceptive activity in icv dosed mouse assessed as tail flick latency; assay type: functional
Mus musculus [20] = experiment: Antinociceptive activity in sc dosed mouse assessed as tail flick latency; assay type: functional
Mus musculus [21] = experiment: Antinociceptive activity in mouse at 3.2 to 32 pmol IT or sc; assay type: functional; conditions: dose 3.2-32 pmol
Mu-type opioid receptor [22] = target: Mu-type opioid receptor (Bos taurus, UniProt P79350); experiment: Displacement of [3H]DAMGO from calf thalamus membrane MOP by competitive binding assay; assay type: cell membranes
[23] = Displacement of [3H]DPDPE from calf frontal cortex membrane Delta-type opioid receptor by competitive binding assay; assay type: cell membranes, Bos taurus
[24] = target: T5, Kappa-type opioid receptor; experiment: Displacement of [3H]U69593 from mouse brain membrane KOP by competitive binding assay; assay type: cell membranes
[25] = Toxicity in mouse assessed as inhibition of gastrointestinal transit at 3.2 to 32 pmol IT or sc by charcoal meal test; assay type: organism-based; conditions: in vivo, other, dose 3.2-32 pmol
Mu-type opioid receptor [26] = target: T3, Mu-type opioid receptor; experiment: Antagonist activity at guinea pig ileum MOP; assay type: functional, tissue-based
Mu-type opioid receptor [27] = target: Mu-type opioid receptor (Mus musculus, UniProt P42866); experiment: Antagonist activity at mouse vas deferns MOP; assay type: functional
Rattus norvegicus [28] = experiment: Antinociceptive activity in rat administered iv; assay type: functional
Rattus norvegicus [29] = experiment: Antinociceptive activity in rat administered icv; assay type: functional
Mu-type opioid receptor [30] = target: Mu-type opioid receptor (Rattus norvegicus, UniProt P33535); experiment: Displacement of [3H]DAGO from rat brain MOP incubated for 90 mins by scintillation counter; assay type: tissue-based
[31] = target: Delta-type opioid receptor (Rattus norvegicus, UniProt P33533); experiment: Displacement of [3H][DAla2]deltorphin-I from rat brain DOP incubated for 90 mins by scintillation counter; assay type: tissue-based
[32] = target: T4, Kappa-type opioid receptor; experiment: Displacement of [3H]U69593 from guinea pig brain KOP incubated for 90 mins by scintillation counter; assay type: tissue-based
Mus musculus [33] = species on record: Mus musculus; experiment: Antinociceptive activity in mouse; assay type: functional
Rattus norvegicus [34] = experiment: Antinociceptive activity in rat at 9 to 120 nmol icv or sc; assay type: functional; conditions: dose 9-120 nmol
[35] = Toxicity in rat assessed as inhibition of hypercapnic respiratory response at 9 to 120 nmol icv or sc; conditions: in vivo, icv_or_intrathecal, dose 9-120 nmol
Mus musculus [36] = experiment: Antinociceptive activity in ip dosed mouse assessed as tail flick latency; assay type: functional
[37] = Toxicity in ip dosed mouse assessed as antinociceptive tolerance; assay type: organism-based; conditions: in vivo
[38] = target: T5, Kappa-type opioid receptor; experiment: Displacement of [3H]U69593 from C57BL6/J mouse brain KOP; assay type: tissue-based
[39] = target: T5, Kappa-type opioid receptor; experiment: Agonist activity at C57BL6/J mouse brain KOP by calcium mobilization assay; assay type: functional, tissue-based
[40] = target: T5, Kappa-type opioid receptor; experiment: Agonist activity at C57BL6/J mouse brain KOP; assay type: functional, tissue-based
[41] = Toxicity in po dosed mouse assessed as antinociceptive activity tolerance by hot plate assay; assay type: organism-based; conditions: in vivo
Mus musculus [42] = experiment: Antinociceptive activity in po dosed visceral pain mouse model; assay type: functional
Mus musculus [43] = experiment: Antinociceptive activity in sc dosed mouse; assay type: functional
[44] = target: T6, Kappa-type opioid receptor; experiment: Agonist activity at KOP (unknown origin) assessed as inhibition of forskolin-induced cAMP accumulation; assay type: functional
Mu-type opioid receptor [45] = target: T1, Mu-type opioid receptor; experiment: Agonist activity at human MOP stably expressed in CHO-K1 cells assessed as inhibition of forskolin-induced cAMP accumulation; assay type: functional, cell-based
[46] = target: T6, Kappa-type opioid receptor; experiment: Agonist activity at KOP (unknown origin); assay type: functional
Mus musculus [47] = experiment: Antinociceptive activity in ip dosed C57BL/6J mouse assessed as tail withdrawal latency from warm water; assay type: functional
Mu-type opioid receptor [48] = target: T1, Mu-type opioid receptor; experiment: Inhibition of MOP (unknown origin)

## CC[C@@H]1CN2CC[C@]3(O)c4c(cccc4OC)NC3[C@@H]2C[C@@H]1/C(=C\OC)C(=O)OC (stereo partly drawn)
Mu-type opioid receptor [1]
  Ki: 47 nM
[2]
  Ki: 219 nM
Mu-type opioid receptor [3]
  Ki: 11 nM
[4]
  Ki: 96 nM
Mu-type opioid receptor [5]
  EC50: 34.5 nM
[6]
  Ki: 85 nM
[7]
  IC50: 10000 nM
[8]
  IC50: 7900 nM
[9]
  IC50: 2520 nM
[10]
  IC50: 691 nM
Mus musculus [11]
  ED50: 4.4 mg/kg
Mus musculus [12]
  ED50: 0.8 mg/kg
Mus musculus [13]
  ED50: 2.2 mg/kg
Mus musculus [14]
  ED50: 0.93 mg/kg
Mus musculus [15]
  ED50: 1.1 mg/kg
Mus musculus [16]
  ED50: 0.15 mg/kg
[17]
  ED50: 7.5 mg/kg
[18]
  ED50: 1.19 mg/kg

## COC(=O)[C@@H]1C[C@H](OC(C)=O)C(=O)[C@H]2[C@@]1(C)CC[C@H]1C(=O)O[C@H](c3ccoc3)C[C@]21C [SALVINORIN A]
Mus musculus [19]
  ED50: 1.5 µg
Mus musculus [20]
  ED50: 2.1 mg/kg

## Cc1cc(O)cc(C)c1C[C@H](N)C(=O)N[C@H](CCCNC(=N)N)C(=O)N[C@@H](Cc1ccccc1)C(=O)N[C@@H](CCCCN)C(N)=O
Mus musculus [21]
  ED50: 0.0655 mg/kg
Mu-type opioid receptor [22]
  Ki: 0.14 nM
[23]
  Ki: 116 nM
[24]
  Ki: 11.5 nM
[25]
  ED50: 0.006 mg/kg

## C[C@@H](NC(=O)[C@@H](N)Cc1ccc(O)cc1)C(=O)N[C@@H](Cc1ccccc1)C(=O)NCC(=O)N[C@@H](Cc1ccc(O)cc1)C(=O)N1CCC[C@H]1C(=O)N[C@@H](CCCCN)C(N)=O
Mu-type opioid receptor [26]
  IC50: 1.7 nM
Mu-type opioid receptor [27]
  IC50: 52 nM
Rattus norvegicus [28]
  ED50: 0.06 µmol/kg
Rattus norvegicus [29]
  ED50: 0.03 pmol
Mu-type opioid receptor [30]
  Ki: 0.09 nM
[31]
  Ki: 1100 nM
[32]
  Ki: 617 nM
Mus musculus [33]
  ED50: 0.22 µmol/kg
Rattus norvegicus [34]
  ED50: 21.5 µmol/kg
[35]
  Activity: 45.9 µmol/kg

## COC(=O)[C@@H]1C=C(OC(=O)c2ccccc2)C(=O)[C@H]2[C@@]1(C)CC[C@H]1C(=O)O[C@H](c3ccoc3)C[C@]21C
Mus musculus [36]
  ED50: 5 mg/kg
[37]
  ED50: 7.9 mg/kg

## CCC(=O)O[C@H]1C[C@@H](C(=O)OC)[C@]2(C)CC[C@H]3C(=O)O[C@H](c4ccoc4)C[C@]3(C)[C@H]2C1=O
[38]
  Ki: 32.6 nM
[39]
  EC50: 102 nM
[40]
  EC50: 17 nM

## CC[C@@H]1CN2CC[C@@]34OCCO[C@@]3(Nc3ccc(F)c(OC)c34)[C@@H]2C[C@@H]1/C(=C\OC)C(=O)OC
Mu-type opioid receptor [3]
  Ki: 7.3 nM
[4]
  Ki: 350 nM
[6]
  Ki: 18 nM
[41]
  ED50: 1.3 mg/kg
Mus musculus [11]
  ED50: 2.8 mg/kg
Mus musculus [12]
  ED50: 0.6 mg/kg
Mus musculus [13]
  ED50: 3 mg/kg
Mus musculus [14]
  ED50: 0.7 mg/kg
[17]
  ED50: 11.1 mg/kg
Mus musculus [42]
  ED50: 0.6 mg/kg
Mus musculus [43]
  ED50: 0.1 mg/kg

## COC(=O)[C@@H]1C[C@H](OC(=O)c2ccc(CO)cc2)C(=O)[C@H]2[C@@]1(C)CC[C@H]1C(=O)O[C@H](c3ccoc3)C[C@]21C
[44]
  EC50: > 10000 nM
Mu-type opioid receptor [45]
  EC50: 0.03 nM
Mus musculus [36]
  ED50: 2.35 mg/kg

## CC[C@@H]1CN2CCc3c([nH]c4cccc(OC)c34)[C@@H]2C[C@@H]1/C(=C\OC)C(=O)OC
[2]
  Ki: > 10000 nM
[9]
  IC50: > 10000 nM
[46]
  EC50: 8500 nM
Mus musculus [11]
  ED50: 2.1 mg/kg

## O=C1NCCC(=O)N2CCC[C@@H]2C(=O)N[C@@H](Cc2ccccc2)C(=O)N[C@H]1Cc1c[nH]c2ccccc12 (cyclo(FW[βAla][dP]))
Mus musculus [47]
  ED50: 0.64 mg/kg

## C=C[C@H]1CN2CCc3c([nH]c4cccc(OC)c34)[C@@H]2C[C@@H]1/C(=C\OC)C(=O)OC
[2]
  Ki: > 10000 nM
Mu-type opioid receptor [48]
  IC50: 2200 nM
[9]
  IC50: > 10000 nM
[10]
  IC50: 10000 nM
